Results: ChEMBL document CHEMBL5465560, “Selectivity Literature for EUbOPEN Chemogenomic Library” (2024)
One block for each compound: values may come before it.

Assays:
[1] = target: T1, Interleukin-1 receptor-associated kinase 4 (Homo sapiens) (UniProt Q9NWZ3); test: Selectivity interaction (Ambit KINOMEscan and KiNATiv profiling in Jurkat cells) EUB0000090b IRAK4; type: cell-based; conditions: at 1 µM
T1 sequence (whole entry): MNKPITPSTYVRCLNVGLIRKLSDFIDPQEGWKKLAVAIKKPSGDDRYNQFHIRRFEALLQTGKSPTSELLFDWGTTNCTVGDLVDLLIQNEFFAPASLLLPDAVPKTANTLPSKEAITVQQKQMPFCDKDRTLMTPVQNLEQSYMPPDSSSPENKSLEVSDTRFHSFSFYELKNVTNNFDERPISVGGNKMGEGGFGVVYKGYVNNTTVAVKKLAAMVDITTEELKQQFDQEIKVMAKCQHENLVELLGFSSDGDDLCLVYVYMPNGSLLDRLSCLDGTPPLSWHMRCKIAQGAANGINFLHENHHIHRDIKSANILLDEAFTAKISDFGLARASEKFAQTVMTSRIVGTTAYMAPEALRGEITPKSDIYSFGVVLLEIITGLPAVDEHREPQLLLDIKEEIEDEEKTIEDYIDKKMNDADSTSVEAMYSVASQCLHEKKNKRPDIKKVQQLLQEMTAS

[2] = target: Myosin light chain kinase, smooth muscle (Homo sapiens, UniProt Q15746); test: Selectivity interaction (Ambit KINOMEscan and KiNATiv profiling in Jurkat cells) EUB0000090b MYLK; type: cell-based; conditions: at 1 µM
Myosin light chain kinase, smooth muscle, sequence (Q15746 whole entry): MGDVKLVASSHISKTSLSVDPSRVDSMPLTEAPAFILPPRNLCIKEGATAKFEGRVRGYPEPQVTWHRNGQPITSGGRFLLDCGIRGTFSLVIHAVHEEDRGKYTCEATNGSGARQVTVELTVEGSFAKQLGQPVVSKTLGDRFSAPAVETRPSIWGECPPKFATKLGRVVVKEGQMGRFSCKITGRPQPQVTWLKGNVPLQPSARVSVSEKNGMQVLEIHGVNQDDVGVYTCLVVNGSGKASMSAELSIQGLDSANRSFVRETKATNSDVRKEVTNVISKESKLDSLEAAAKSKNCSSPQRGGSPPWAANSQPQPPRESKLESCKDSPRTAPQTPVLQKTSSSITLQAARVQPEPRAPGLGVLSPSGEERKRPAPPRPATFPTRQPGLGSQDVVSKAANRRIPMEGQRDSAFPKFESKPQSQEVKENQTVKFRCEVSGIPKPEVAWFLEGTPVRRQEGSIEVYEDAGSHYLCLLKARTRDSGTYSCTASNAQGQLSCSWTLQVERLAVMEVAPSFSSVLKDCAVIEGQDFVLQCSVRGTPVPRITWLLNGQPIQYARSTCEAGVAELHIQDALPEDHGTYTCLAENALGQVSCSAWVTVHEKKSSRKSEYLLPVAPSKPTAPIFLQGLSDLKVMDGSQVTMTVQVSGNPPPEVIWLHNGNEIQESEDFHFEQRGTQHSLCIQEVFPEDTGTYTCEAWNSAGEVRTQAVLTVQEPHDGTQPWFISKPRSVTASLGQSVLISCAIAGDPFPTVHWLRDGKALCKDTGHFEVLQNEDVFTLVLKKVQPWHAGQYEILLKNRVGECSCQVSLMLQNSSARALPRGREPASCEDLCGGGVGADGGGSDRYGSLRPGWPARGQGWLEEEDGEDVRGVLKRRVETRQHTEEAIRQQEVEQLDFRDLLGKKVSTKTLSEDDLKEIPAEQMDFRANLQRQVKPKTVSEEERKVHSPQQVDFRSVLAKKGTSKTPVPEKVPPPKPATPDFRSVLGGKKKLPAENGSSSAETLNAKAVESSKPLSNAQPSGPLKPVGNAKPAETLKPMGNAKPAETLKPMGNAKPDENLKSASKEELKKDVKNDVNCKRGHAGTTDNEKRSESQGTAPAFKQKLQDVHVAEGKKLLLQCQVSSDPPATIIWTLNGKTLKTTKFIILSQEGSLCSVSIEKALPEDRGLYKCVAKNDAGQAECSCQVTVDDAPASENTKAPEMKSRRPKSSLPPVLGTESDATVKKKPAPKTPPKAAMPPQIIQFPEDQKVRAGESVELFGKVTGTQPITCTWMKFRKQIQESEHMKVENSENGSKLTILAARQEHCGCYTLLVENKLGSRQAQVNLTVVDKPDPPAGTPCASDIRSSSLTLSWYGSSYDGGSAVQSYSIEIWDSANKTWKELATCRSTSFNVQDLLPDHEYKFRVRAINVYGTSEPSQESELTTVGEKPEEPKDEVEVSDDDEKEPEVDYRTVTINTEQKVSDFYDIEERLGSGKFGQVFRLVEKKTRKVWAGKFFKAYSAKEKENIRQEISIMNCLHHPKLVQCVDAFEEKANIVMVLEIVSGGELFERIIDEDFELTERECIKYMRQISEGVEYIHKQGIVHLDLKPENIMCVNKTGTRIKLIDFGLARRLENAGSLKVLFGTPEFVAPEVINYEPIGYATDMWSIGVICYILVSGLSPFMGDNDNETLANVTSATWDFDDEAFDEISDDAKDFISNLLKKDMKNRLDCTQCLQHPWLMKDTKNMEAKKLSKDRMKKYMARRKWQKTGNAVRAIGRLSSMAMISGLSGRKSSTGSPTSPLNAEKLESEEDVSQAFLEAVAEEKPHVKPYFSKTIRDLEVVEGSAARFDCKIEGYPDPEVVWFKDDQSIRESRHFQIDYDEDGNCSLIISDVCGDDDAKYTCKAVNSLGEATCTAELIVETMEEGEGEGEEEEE

[3] = target: Ribosomal protein S6 kinase alpha-1 (Homo sapiens, UniProt Q15418); test: Selectivity interaction (KinomeScan (DiscoverX)) EUB0000655a RPS6KA1; conditions: at 10 µM
Ribosomal protein S6 kinase alpha-1, sequence (Q15418 whole entry): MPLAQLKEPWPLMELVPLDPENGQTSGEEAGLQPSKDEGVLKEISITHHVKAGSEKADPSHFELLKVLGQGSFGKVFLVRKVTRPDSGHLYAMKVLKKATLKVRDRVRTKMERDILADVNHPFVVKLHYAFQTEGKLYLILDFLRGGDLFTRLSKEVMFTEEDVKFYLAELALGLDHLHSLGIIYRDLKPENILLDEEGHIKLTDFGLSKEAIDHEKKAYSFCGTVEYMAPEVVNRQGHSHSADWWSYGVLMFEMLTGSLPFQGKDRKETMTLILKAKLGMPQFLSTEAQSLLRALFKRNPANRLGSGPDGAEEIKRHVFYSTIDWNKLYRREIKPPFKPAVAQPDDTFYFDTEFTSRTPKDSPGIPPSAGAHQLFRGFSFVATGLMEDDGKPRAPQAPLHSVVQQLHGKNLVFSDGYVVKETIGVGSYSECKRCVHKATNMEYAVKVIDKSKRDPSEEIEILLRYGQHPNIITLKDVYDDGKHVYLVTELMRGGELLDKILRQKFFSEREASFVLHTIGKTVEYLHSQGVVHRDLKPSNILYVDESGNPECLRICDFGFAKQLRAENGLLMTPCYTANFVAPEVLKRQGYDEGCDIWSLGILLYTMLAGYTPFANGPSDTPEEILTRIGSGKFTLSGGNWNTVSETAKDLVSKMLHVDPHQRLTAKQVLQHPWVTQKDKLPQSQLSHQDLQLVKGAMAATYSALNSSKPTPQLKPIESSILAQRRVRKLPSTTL

[4] = target: T2, Muscle, skeletal receptor tyrosine-protein kinase (Homo sapiens) (UniProt O15146); test: Selectivity interaction (KinomeScan (DiscoverX)) EUB0000618a MUSK; conditions: at 10 µM
T2 sequence (whole entry): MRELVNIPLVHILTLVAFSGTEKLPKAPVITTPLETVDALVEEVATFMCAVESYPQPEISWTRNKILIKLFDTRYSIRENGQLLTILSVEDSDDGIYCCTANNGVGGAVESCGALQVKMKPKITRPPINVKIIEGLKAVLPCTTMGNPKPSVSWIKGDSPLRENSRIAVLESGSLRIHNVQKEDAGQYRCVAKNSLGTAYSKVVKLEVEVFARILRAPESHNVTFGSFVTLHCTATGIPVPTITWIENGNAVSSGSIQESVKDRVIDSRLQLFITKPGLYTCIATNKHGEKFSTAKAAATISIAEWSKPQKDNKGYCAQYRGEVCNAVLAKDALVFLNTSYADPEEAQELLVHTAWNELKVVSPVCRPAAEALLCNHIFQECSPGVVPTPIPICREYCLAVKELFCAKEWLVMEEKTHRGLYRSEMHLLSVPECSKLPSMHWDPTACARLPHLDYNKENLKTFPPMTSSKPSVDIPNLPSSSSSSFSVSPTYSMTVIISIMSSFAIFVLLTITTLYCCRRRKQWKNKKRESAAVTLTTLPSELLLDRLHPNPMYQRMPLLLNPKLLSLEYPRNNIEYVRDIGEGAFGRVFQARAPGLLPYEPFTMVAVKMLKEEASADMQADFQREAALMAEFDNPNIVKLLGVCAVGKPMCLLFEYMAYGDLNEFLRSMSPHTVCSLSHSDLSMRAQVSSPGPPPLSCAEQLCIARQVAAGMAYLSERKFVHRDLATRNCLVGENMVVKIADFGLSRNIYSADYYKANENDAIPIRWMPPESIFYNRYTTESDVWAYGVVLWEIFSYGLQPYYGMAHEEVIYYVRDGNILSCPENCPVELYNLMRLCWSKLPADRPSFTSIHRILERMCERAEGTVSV

[5] = target: T3, Phosphorylase b kinase gamma catalytic chain, liver/testis isoform (Homo sapiens) (UniProt P15735); test: Selectivity interaction (KinomeScan (DiscoverX)) EUB0000595a PHKG2; conditions: at 10 µM
T3 sequence (whole entry): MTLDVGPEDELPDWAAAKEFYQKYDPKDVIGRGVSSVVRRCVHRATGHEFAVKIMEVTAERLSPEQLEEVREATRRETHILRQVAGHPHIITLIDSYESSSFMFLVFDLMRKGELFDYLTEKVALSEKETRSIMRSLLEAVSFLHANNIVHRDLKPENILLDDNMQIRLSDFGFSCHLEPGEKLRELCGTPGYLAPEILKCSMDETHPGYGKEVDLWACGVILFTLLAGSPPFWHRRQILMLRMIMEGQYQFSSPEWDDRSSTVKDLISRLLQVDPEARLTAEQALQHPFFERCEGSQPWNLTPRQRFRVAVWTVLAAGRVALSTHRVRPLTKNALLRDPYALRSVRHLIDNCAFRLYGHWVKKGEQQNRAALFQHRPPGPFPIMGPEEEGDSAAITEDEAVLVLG

[6] = target: T4, Serine/threonine-protein kinase tousled-like 1 (Homo sapiens) (UniProt Q9UKI8); test: Selectivity interaction (ActivX KiNativ screen (kinase selectivity in THP-1 cell lysates)) EUB0000639a TLK1; type: subcellular; conditions: lysate, at 0.04 µM
T4 sequence (whole entry): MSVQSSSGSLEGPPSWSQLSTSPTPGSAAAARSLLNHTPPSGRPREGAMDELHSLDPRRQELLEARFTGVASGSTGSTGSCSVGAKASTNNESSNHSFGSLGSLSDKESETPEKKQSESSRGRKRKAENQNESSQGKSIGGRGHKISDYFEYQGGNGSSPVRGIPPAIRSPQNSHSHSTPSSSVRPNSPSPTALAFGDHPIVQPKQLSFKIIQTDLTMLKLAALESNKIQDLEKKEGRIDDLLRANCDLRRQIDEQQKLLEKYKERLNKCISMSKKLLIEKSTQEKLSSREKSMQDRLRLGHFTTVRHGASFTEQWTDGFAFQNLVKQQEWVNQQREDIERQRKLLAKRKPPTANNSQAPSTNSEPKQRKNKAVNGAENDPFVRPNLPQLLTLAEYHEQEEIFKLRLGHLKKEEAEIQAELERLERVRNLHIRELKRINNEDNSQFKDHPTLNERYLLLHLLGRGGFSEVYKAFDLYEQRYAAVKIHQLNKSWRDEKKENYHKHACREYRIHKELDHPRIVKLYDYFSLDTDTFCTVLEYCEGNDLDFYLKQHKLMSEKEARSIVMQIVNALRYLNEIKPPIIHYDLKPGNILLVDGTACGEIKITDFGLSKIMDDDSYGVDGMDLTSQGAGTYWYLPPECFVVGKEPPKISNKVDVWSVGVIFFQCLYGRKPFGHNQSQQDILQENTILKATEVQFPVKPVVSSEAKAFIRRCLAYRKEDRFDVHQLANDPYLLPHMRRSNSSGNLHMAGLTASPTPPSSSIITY

[7] = target: Serine/threonine-protein kinase WNK2 (Homo sapiens) (UniProt Q9Y3S1); test: Selectivity interaction (ActivX KiNativ screen (kinase selectivity in THP-1 cell lysates)) EUB0000639a WNK2; type: subcellular; conditions: lysate, at 5 µM
Serine/threonine-protein kinase WNK2 (Homo sapiens), sequence (Q9Y3S1 whole entry): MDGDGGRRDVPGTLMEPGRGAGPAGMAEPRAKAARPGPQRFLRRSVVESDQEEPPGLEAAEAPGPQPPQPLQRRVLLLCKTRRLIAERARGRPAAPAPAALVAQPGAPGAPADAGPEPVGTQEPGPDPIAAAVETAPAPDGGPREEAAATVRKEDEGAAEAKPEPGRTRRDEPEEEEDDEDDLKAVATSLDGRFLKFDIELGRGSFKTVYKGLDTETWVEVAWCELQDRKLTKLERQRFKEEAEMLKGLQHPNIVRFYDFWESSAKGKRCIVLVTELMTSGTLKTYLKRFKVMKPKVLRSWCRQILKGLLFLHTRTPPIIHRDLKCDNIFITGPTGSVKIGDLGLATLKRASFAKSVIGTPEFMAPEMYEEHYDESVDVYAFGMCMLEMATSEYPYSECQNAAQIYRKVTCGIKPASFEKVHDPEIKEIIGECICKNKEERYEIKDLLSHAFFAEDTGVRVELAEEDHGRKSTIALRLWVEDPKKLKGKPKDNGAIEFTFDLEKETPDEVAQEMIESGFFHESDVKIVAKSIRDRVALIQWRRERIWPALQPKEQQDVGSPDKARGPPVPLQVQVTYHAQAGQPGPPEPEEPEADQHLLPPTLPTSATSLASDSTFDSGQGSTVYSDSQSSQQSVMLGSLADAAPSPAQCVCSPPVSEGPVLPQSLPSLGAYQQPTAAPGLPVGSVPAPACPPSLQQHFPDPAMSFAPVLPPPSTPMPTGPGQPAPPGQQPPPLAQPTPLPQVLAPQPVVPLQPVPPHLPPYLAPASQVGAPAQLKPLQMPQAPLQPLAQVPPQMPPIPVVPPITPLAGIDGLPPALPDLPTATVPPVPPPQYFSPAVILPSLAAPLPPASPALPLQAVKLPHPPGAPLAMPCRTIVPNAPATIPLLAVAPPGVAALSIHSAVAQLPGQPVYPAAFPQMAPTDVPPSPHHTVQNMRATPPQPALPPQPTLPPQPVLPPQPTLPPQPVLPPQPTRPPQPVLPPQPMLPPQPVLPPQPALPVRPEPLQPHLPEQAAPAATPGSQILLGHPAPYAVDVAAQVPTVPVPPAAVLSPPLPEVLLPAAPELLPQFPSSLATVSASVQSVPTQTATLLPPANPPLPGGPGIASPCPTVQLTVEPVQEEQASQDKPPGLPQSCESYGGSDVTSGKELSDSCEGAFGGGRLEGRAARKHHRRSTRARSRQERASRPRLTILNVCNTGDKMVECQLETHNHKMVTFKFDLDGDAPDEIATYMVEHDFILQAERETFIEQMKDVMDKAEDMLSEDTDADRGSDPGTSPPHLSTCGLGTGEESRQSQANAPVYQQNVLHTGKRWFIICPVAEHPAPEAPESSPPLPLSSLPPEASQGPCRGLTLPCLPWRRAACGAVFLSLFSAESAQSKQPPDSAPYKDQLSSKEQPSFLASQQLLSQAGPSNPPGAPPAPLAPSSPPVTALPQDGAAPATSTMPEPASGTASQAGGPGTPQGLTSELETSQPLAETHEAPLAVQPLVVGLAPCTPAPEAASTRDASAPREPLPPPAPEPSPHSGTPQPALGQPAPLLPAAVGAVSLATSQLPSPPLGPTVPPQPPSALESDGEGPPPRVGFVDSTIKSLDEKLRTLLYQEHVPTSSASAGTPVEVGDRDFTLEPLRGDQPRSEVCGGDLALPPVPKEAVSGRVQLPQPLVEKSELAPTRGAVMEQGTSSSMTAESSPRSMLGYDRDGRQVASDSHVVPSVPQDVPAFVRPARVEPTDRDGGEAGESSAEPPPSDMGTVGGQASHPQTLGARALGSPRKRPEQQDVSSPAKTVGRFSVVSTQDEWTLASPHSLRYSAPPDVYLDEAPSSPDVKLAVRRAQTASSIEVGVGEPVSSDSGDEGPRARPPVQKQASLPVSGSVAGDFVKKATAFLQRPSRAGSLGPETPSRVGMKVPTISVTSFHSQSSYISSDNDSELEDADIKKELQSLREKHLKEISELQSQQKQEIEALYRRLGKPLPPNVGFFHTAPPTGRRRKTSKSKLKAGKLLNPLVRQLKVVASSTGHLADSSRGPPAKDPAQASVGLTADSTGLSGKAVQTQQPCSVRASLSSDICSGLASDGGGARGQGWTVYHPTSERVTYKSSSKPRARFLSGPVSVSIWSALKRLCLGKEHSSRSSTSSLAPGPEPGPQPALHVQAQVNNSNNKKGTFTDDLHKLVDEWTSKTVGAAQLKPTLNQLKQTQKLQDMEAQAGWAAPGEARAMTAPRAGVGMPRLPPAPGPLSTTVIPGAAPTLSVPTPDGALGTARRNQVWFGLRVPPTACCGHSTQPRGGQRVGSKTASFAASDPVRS

[8] = target: Glycogen synthase kinase-3 alpha (Homo sapiens, UniProt P49840); test: Selectivity interaction (Kinase panel (Z-LYTE Assay)) EUB0001632a GSK3A; conditions: at 10 µM

Compound: CN(C)C/C=C/C(=O)Nc1ccc(C(=O)N2CCCC(Nc3ncc(Cl)c(-c4c[nH]c5ccccc45)n3)C2)cc1 (stereo not drawn)
- % of control [1]: 99%
- % of control [2]: 78%

Compound: CN(C)CCOc1ccc(-c2nc(-c3ccncc3)c(-c3ccc4c(c3)CC/C4=N\O)[nH]2)cc1
- % of control [3]: 91%

Compound: O[C@H]1CC[C@H](Nc2ncc3nc(Nc4c(F)cc(F)cc4F)n([C@H]4CCOC4)c3n2)CC1
- % of control [4]: 63%

Compound: COCC(=O)NC/C=C/c1ccc2ncnc(Nc3ccc(Oc4ccc(C)nc4)c(C)c3)c2c1 [CP-724714]
- % of control [5]: 86%

- % of inhibition [6]: -7.3%
- % of inhibition [7]: -14.5%
Compound: CC[C@@H]1[C@H](F)C(=O)N[C@@H]1COc1nccc2cc(C(N)=O)c(OC)cc12 [ZIMLOVISERTIB]

- % of control [8]: 82.2%
Compound: Cn1cc(-n2cnc3c(NCc4nc5cc(Cl)c(Cl)cc5[nH]4)nc(N4CCOCC4)nc32)cn1
